Non-standard residues stand in square brackets, D forms with d. Residues, ends and D or L forms follow the SMILES beside them. *: point of attachment. AFC = O=c1cc(C(F)(F)F)c2ccc(N*)cc2o1; pNA = O=[N+]([O-])c1ccc(N*)cc1; Cbz = O=C(OCc1ccccc1)*; Sar = CNCC(=O)O
Legend:
[1] = biological target: T1, human a-thrombin (Homo sapiens, UniProt P00734); assay: In vitro assay for determining proteinase inhibition (thrombin Ki); assay type: biochemical; settings: 25° C., 0.05 M TRIS buffer pH 7.4, 0.15 M NaCl, 0.1% PEG
T1 construct: human a-thrombin
Method: In vitro Assay for Determining Proteinase Inhibition
(§1) Assays of human a-thrombin and human trypsin were performed at 25° C. in 0.05 M TRIS buffer pH 7.4, 0.15 M NaCl, 0.1% PEG. Trypsin assays also contained 1 mM CaCl2.
(§2) In certain studies with potent inhibitors (Ki <10 nM) where the degree of inhibition of thrombin was high, a more sensitive activity assay was employed. […] Concentrations of stock solutions of Z-GPR-afc were determined from measurements of absorbance at 380 nm of the 7-amino-4-trifluoromethylcoumarin produced upon complete hydrolysis of an aliquot of the stock solution by thrombin.
Activity assays were performed by diluting a stock solution of substrate at least tenfold to a final concentration <0.5 Km into a solution containing enzyme or enzyme equilibrated with inhibitor. Times required to achieve equilibration between enzyme and inhibitor were determined in control experiments. Initial velocities of product formation in the absence (V0) or presence of inhibitor (Vi) were measured. Assuming competitive inhibition, and that unity is negligible compared Km /[S], […] (where [S], [I], and e respectively represent the total concentrations, of substrate, inhibitor and enzyme), the equilibrium constant (Ki) for dissociation of the inhibitor from the enzyme can be obtained from the dependence of V0 /Vi on [I] shown in equation 1.

[2] = tested on: thrombin; assay: Thrombin catalyzed hydrolysis of fluorogenic substrate (fluorescence at 500 nm); assay type: biochemical, human; settings: fluorogenic substrate for thrombin, excitation at 400 nm
Method: as §1, §2

[3] = tested on: human trypsin; assay: Hydrolysis of p-nitroanilide substrate by human trypsin (405 nm); assay type: biochemical; settings: substrate for human trypsin, 25° C., pH 7.4, 1 mM CaCl2
Method: as §1

Compound | Ki [1] [µM] | other results
CC(C)[C@@H](CCNc1ccncc1)NC(=O)CNS(=O)(=O)c1ccc(Cl)c(Cl)c1 [(CH3)2 CH2 -- 1 3,4-di-Cl--PhSO2 -- H] | < 1 | 
CC(C)[C@@H](CCNc1ccncc1)NC(=O)CNS(=O)(=O)Cc1ccccc1 [(CH3)2 CH2 -- 1 BnSO2 -- H] | > 1 | 
O=C(CNS(=O)(=O)c1ccc(Cl)cc1)N[C@H](CNc1ccncc1)Cc1ccccc1 [Bn 0 4-ClPhSO2 -- H] | > 1 | 
CC(C)(C)OC(=O)NCC(=O)N[C@H](CNc1ccncc1)Cc1ccccc1 [Bn 0 Boc H] | > 1 | 
O=C(CNS(=O)(=O)c1ccccc1)N[C@H](CNc1ccncc1)Cc1ccccc1 [Bn 0 PhSO2 -- H] | > 1 | 
O=C(CNS(=O)(=O)c1ccc2ccccc2c1)N[C@H](CCNc1ccncc1)Cc1ccccc1 [Bn 1 2-naphthSO2 -- H] | < 1 | 
O=C(CNS(=O)(=O)Cc1ccc(Cl)c(Cl)c1)N[C@H](CCNc1ccncc1)Cc1ccccc1 [Bn 1 3,4-di-Cl--BnSO2 -- H] | < 1 | 
O=C(N[C@H](CCNc1ccncc1)Cc1ccccc1)[C@H](CO)NS(=O)(=O)c1ccc(Cl)c(Cl)c1 [Bn 1 3,4-di-Cl--PhSO2 -- (S)-CH2 OH] | < 1 | 
O=C(CNS(=O)(=O)c1ccc(Cl)c(Cl)c1)N[C@H](CCNc1ccncc1)Cc1ccccc1 [Bn 1 3,4-di-Cl--PhSO2 -- H] | < 1 | 
O=C(CNS(=O)(=O)Cc1ccc(C(F)(F)F)cc1)N[C@H](CCNc1ccncc1)Cc1ccccc1 [Bn 1 4-CF3 --BnSO2 -- H] | < 1 | 
O=C(CNS(=O)(=O)Cc1ccc(Cl)cc1)N[C@H](CCNc1ccncc1)Cc1ccccc1 [Bn 1 4-Cl--BnSO2 -- H] | < 1 | 
O=C(CNS(=O)(=O)c1ccc(Cl)cc1)N[C@H](CCNc1ccncc1)Cc1ccccc1 [Bn 1 4-Cl--PhSO2 -- H] | < 1 | 
COc1cc(C)c(S(=O)(=O)NCC(=O)N[C@H](CCNc2ccncc2)Cc2ccccc2)c(C)c1C [Bn 1 4-OCH3-2,3,6-MePhSO2 -- H] | < 1 | 
C[C@@H](NS(=O)(=O)Cc1ccccc1)C(=O)N[C@H](CCNc1ccncc1)Cc1ccccc1 [Bn 1 BnSO2 -- (R)-CH3] | > 1 | 
CS(=O)(=O)CC[C@H](NS(=O)(=O)Cc1ccccc1)C(=O)N[C@H](CCNc1ccncc1)Cc1ccccc1 [Bn 1 BnSO2 -- (S)- CH2 CH2 SO2 CH3] | < 1 | 
CSCC[C@H](NS(=O)(=O)Cc1ccccc1)C(=O)N[C@H](CCNc1ccncc1)Cc1ccccc1 [Bn 1 BnSO2 -- (S)-CH2 CH2 SCH3] | < 1 | 
C[C@H](NS(=O)(=O)Cc1ccccc1)C(=O)N[C@H](CCNc1ccncc1)Cc1ccccc1 [Bn 1 BnSO2 -- (S)-CH3] | < 1 | 
O=C(CNS(=O)(=O)Cc1ccccc1)N[C@H](CCNc1ccncc1)Cc1ccccc1 [Bn 1 BnSO2 -- H] | < 1 | 
NC(Cc1ccc(Cl)cc1)C(=O)N[C@H](CCNc1ccncc1)Cc1ccccc1 (some centres unmarked) [Bn 1 H 4-ClBn--] | < 1 | 
O=C(CNS(=O)(=O)C=Cc1ccccc1)N[C@H](CCNc1ccncc1)Cc1ccccc1 [Bn 1 PhCH=CHSO2 -- H] | < 1 | 
N=C(N)NCCC[C@H](NC(=O)[C@@H]1CCCN1C(=O)CNC(=O)OCc1ccccc1)C(=O)Nc1ccc2c(C(F)(F)F)cc(=O)oc2c1 [Z-GPR-afc, Cbz-Gly-Pro-Arg-7-amino-4-trifluoromethylcoumarin] (Cbz-Gly-Pro-Arg-{AFC}) |  | Km [2]: 27 µM
O=C(CNS(=O)(=O)c1ccccc1)N[C@H](CNc1ccncc1)CC1CCCCC1 [c-hexylCH2 -- 0 PhSO2 -- H] | > 1 | 
CNCC(=O)N1CCC[C@H]1C(=O)N[C@@H](CCCNC(=N)N)C(=O)Nc1ccc([N+](=O)[O-])cc1 [sar-PR-pna, sarcosine-Pro-Arg-p-nitroanilide] (H-[Sar]-Pro-Arg-pNA) |  | Km [3]: 59 µM
